Data from patent publication US4927835A, “Acylphenol derivatives, useful as anti-inflammatory agents and pain suppressants” (priority 1988, dated 1990).
Read-outs that look alike come from different tables or passages of the source.

What was measured:
[1] = Inhibitory action to acetic acid writhing; type: in vivo, male mice (ddY strain); conditions: for ED50: po, read-out: (2) ED50, acetic acid writhing
Experimental: Six male mice (ddY strain; five weeks of age) were used in a group. The test compound was administered per os and, after one hour, 0.6% acetic acid was intraperitoneally injected at the dose of 0.1 ml/10 g and the total writhings within 20 minutes thereafter were counted. By comparing the number of writhings of the drug-treated group to that of the control group, the inhibitory rate was obtained and an ED50 value was calculated.

[2] = Inhibitory action to carrageenin edema (right hind paw); type: in vivo, male rats (SD strain); conditions: for ED30: read-out: (1) ED30, carrageenin edema
Experimental: Seven male rats (SD strain; 6 weeks of age) were used in a group. The test compound was administered per os and, after one hour, 0.1 ml of 0.5% λ-carrageenin solution was injected subcutaneously into the right hind paw. After three hours, the volume of the right hind paw was measured with a plethysmometer (UGO-BASILE). The degree of swelling was calculated by subtracting the volume before the carrageenin from the post injection volume.

[3] = values given in literature; cited from earlier work
[4] = Inhibitory action to pain by heat stimulation (tail flick); type: in vivo, male mice (ddY strain); conditions: mouse, per os; for ED50: po, tail flick at 5, 15, 30, 45 and 60 minutes, read-out: (3) ED50, pain by heat stimulation
Experimental: Ten male mice (ddY strain; five weeks of age) were used in a group. Radiated heat (250 watts; 4 cm distance from the heat source) was applied to the end of the tail of the mice. […] The test compound was administered per os and the time of appearance of the tail flick after 5, 15, 30, 45 and 60 minutes was measured. […] The maximum positive rate among the analgesically positive rates in each measuring time was defined as the analgesically positive rate at that dose and an ED50 value was calculated therefrom.

[5] = Stomach disorder (ulcer generation); set-up: species or system male rats (SD strain); conditions: rat, in vivo, po; for selectivity ratio: ratio UD50/ED50, read-out: Safety Region (UD50 /ED50)
Experimental: Ten male rats (SD strain; five weeks of age) were used in a group. The test compound dissolved or suspended in physiological saline solution was administered to them per os. The animals were than fasted for 17 hours, and 0.5 ml of 5% pontamine sky blue solution was injected intravenously and, after 10 minutes, they were sacrificed with ether. The stomach was removed from the animals, and about 8 ml of 5% formaline solution was injected into the stomach to provide a semifixing. The presence of the […] was checked using a stereoscopic microscope. Rats in which even one ulcer was observed was judged to be positive in ulcer generation and a UD50 value was calculated by a provit method.

[6] = Analgesic, anti-inflammatory and anti-pyretic activity, summary statement; type: in vivo; conditions: from the data in Table 1
[7] = Acute toxicity; set-up: species or system male rats (SD strain); conditions: in vivo, po; rat, per os; 7 days; provit method; read-out: (5) LD50, acute toxicity
Experimental: Test data showing the activity and superiority for compounds representative of those of the present invention is set forth below. In the tests, a representative compound of the present invention, namely 3-(1,1-Dimethylethyl)-4-hydroxy-5-[N-(2-hydroxyethyl)-N-methylaminomethyl]phenyl-2-thienyl ketone, the compound described in Example 4 (the "test compound"), was dissolved or suspended in 0.5% methylcellulose (MC) and administered as described.
Four male rats (SD strain; six weeks of age) were used in a group. The test compound was given per os and, after 7 days, the […] were monitored for life and an LD50 value was calculated by a provit method.

[8] = Agents and Actions, vol. 12, page 5, 1982; cited from earlier work
[9] = mouse, per os, 0.6% acetic acid i.p. after one hour, writhings within 20 minutes
[10] = rat, per os, carrageenin 1 hour after compound, paw volume after three hours

Structure (SMILES) | ED50 [1, 9] [mg/kg] | ED30 [2, 10] [mg/kg] | (5) LD50, acute toxicity [3] [mg/kg] | ED50 [4] [mg/kg] | TD50 [5] [mg/kg] | selectivity ratio [5] | ED50 ([1]; Mus musculus) [mg/kg] | ED30 ([2]; Rattus norvegicus) [mg/kg] | (3) action on pain by heat stimulation (no ED50) ([4]; at 20 mg/kg) | TD50 ([5]; per os, fasted 17 hours, provit method, read-out: (4) UD50, stomach ulcer generation) [mg/kg] | analgesic activity, inflammatory pain (acetic acid writhing), compared with codeine ([1]; mouse, per os) | analgesic and anti-inflammatory activity, in words [6] | inhibitory action to carrageenin edema, in words ([2]; rat, per os) | LD50 at 168 h [7] [mg/kg] | analgesic activity, non-inflammatory pain (heat stimulation), compared with codeine [4] | inhibitory action against carrageenin-induced edema, in words [8] | (3) action on pain by heat stimulation (no ED50) ([4]; at 500 mg/kg)
O=C(Cn1c(=O)sc2ccc(Cl)cc21)N1CCN(CCO)CC1 [Thiaramide] | 27.3 | 112 | 4700 | 108 | 278 | 2.5 | – | – | – | – | – | – | – | – | – | – | –
COc1ccc2c(c1)c(CC(=O)O)c(C)n2C(=O)c1ccc(Cl)cc1 [Indomethacin] | – | – | – | – | – | 3 | 2.1 | 0.8 | no action at 20 mg/kg | 2.4 | – | – | – | – | – | – | –
CN(CCO)Cc1cc(C(=O)c2cccs2)cc(C(C)(C)C)c1O [Example 4, 3-(1,1-Dimethylethyl)-4-hydroxy-5-[N-(2-hydroxyethyl)-N-methylaminomethyl]phenyl 2-thienyl ketone] | 16.4 | 9.8 | – | 47 | 146 | 14.9 | – | – | – | – | analgesic activity as strong as codeine | strong analgesic and anti-inflammatory activity | inhibitory action to carrageenin edema | 1000 | analgesic activity as strong as codeine | – | –
CC(C)(C)c1cc(C(=O)c2cccs2)cc(C(C)(C)C)c1O [Example R-830, 3,5-di-tert-butyl-4-hydroxy-phenyl 2-thienyl ketone] | 22.4 | 5.6 | 1625 | – | 11.8 | 2.1 | – | – | – | – | – | – | – | – | – | inhibitory action against carrageenin-induced edema | no action at 500 mg/kg
